Patent US11014964B2, “Peptide amide compound and preparation method and medical use thereof” (Sichuan Haisco Pharmaceutical Co., Ltd., priority 2017, dated 2021)
pEC50: −log10 of the molar value.

Tests used:
Mouse PK test = assay type: in vivo; details: plasma, male ICR mice, iv, 1 mg/kg (calculated in free form)
Rat PK test = assay type: in vivo; details: male SD rats, iv, 1 mg/kg (calculated in free form)
human κ-opioid receptor = biological target: T1, human κ-opioid receptor (Homo sapiens, UniProt P41145); assay: Agonist activity on human κ-opioid receptors (inhibition of forskolin-stimulated cAMP release, TR-FRET); assay type: cell-based; details: OPRK1 cells (DiscoveRx)
T1 construct: host or cells: OPRK1 cells (DiscoveRx)
T1 sequence (P41145 whole entry): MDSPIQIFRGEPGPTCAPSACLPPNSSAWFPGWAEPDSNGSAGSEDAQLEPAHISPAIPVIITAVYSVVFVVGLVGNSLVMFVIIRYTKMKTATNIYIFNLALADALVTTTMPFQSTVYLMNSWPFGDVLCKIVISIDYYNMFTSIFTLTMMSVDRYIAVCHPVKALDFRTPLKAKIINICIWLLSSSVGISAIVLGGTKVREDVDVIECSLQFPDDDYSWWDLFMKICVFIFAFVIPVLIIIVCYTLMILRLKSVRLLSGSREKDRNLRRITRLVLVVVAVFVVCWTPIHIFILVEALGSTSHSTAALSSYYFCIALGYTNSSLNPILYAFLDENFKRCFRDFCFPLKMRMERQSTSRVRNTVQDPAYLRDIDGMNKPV
Text: Test 1: Agonist Activity on Human κ-Opioid Receptors
Forskolin can stimulate the release of cAMP from a human κ-opioid receptor-overexpressing cell line, OPRK1 cells (DiscoveRx), and κ-opioid receptor agonists can inhibit the cAMP release stimulated by forskolin. By detecting the inhibitory effect of the test compound on the cAMP release stimulated by forskolin, the agonistic activity of the compound on the human κ-opioid receptor can be determined. First, a certain concentration of forskolin and different concentrations of the test compound were incubated with human κ-opioid receptor overexpressing cell lines. A cAMP immunoassay (LANCE®, PerkinElmer) based on time-resolved fluorescence resonance energy transfer (TR-FRET) was used to determine cAMP levels in the stimulated OPRK1 cells. The specific method is as follows:
OPRK1 cells (DiscoveRx) that highly express human κ-opioid receptors were cultured in McCoy's 5A (Gibco 16600-082) medium containing 10% FBS (Gibco 10099-141). On the day of the experiment, the cells in the exponential growth phase were washed and separated with PBS/5 mM EDTA, collected by centrifugation, resuspended with Stimulation Buffer and counted. The concentration of cells was adjusted to 3*10^5 cells/ml. DMSO was used to dissolve Forskolin and the test compound respectively, so that the mother liquor concentration each was 10 mM, and then diluted Forskolin to […] with Stimulation Buffer, and different concentrations of the test compound (the concentrations were 80, 16, 3.2, 0.64, 0.128, 0.0256, 0.00512, 0.001024, 0 μM) was added, 5 μl per well was added to a 384-well plate. 5 μl of cell suspension was added to each well and incubated at room temperature for 30 min. Subsequently, 5 μl of 4×Eu-cAMP tracer working solution (50-fold dilution of Eu-cAMP stock solution with cAMP Detection Buffer) and 5 μl of 4×Ulight-anti-cAMP working solution (150-fold dilution of ULight-anti-cAMP stock solution with cAMP Detection Buffer) were added to each well, and incubated at room temperature for 1 hour. 384-well plates were assayed for cAMP levels using a microplate reader (Perkin Elmer, Envision) TR-FRET method. The obtained data were processed and fitted to EC50 using the origin 7.5 software. The human κ-opioid receptor agonistic activity of the compound of the present invention was measured through the above experiments, and the measured EC50 values are shown in Table 1.
Stimulation Buffer preparation method: 14 mL 1*HBSS (invitrogen, cat. #14025-092), 75 μL 1 M HEPES (Invitrogen, cat. #15630-080), 30 μL 250 mM IBMX was dissolved in DMSO (Sigma, cat. #17018) and mixed with 200 μL 7.5% BSA Stabilizer. pH of the solution was adjusted to 7.4 with 0.1 N NaOH and make up to 15 mL with 1*HBSS.

Structure (SMILES)	pEC50 (human κ-opioid receptor)	other results
CC(C)C[C@@H](NC(=O)[C@@H](Cc1ccccc1)NC(=O)[C@H](N)Cc1ccccc1)C(=O)N[C@H](CCCCN)C(=O)N1CCC(N)(C(=O)O)CC1 [CR-845]		AUC(0-t) (Mouse PK test): 1120 ng·h/mL; half-life (Mouse PK test): 0.388 h; Cl (Rat PK test): 8.29 ml/kgmin; AUC(0-t) (Rat PK test; rat, plasma): 1960 ng·h/mL; half-life (Rat PK test; rat, plasma): 3.9 h; Vd (Rat PK test; rat, plasma, read-out: Vdss): 1.56 L/kg
CC(C)C[C@@H](NC(=O)[C@@H](Cc1ccccc1)NC(=O)[C@H](N)Cc1ccccc1)C(=O)N[C@H](CCCCN)C(=O)N1CC2(CCN(S(C)(=O)=O)CC2)C1 [Compound 12, (2R)—N-[(1R)-5-amino-1-(7-methylsulfonyl-2,7-diazaspiro[3.5]nonane-2-carbonyl)pentyl]-2-[[(2R)-2-[[(2R)-2-amino-3-phenyl-propanoyl]amino]-3-phenyl-propanoyl]amino]-4-methyl-pentanamide; di-trifluoroacetic acid]	10.17	
CC(C)C[C@@H](NC(=O)[C@@H](Cc1ccccc1)NC(=O)[C@H](N)Cc1ccccc1)C(=O)N[C@H](CCCCN)C(=O)N1CCC2(CC1)CN(C(=O)N1CCCC1)C2 [Compound 13, (2R)-2-[[(2R)-2-[[(2R)-2-amino-3-phenyl-propanoyl]amino]-3-phenyl-propanoyl]amino]-N-[(1R)-5-amino-1-[2-(pyrrolidin-1-carbonyl)-2,7-diazaspiro[3.5]nonane-7-carbonyl]pentyl]-4-methyl-pentanamide; di-trifluoroacetic acid]	11.17	
CC(C)C[C@@H](NC(=O)[C@@H](Cc1ccccc1)NC(=O)[C@H](N)Cc1ccccc1)C(=O)N[C@H](CCCCN)C(=O)N1CCC2(CC1)CN(C(=O)N1CC(S(C)(=O)=O)C1)C2 [Compound 14, (2R)—N-[(1R)-5-amino-1-[2-(3-methylsulfonylazetidine-1-carbonyl)-2,7-diazaspiro[3.5]nonane-7-carbonyl]pentyl]-2-[[(2R)-2-[[(2R)-2-amino-3-phenyl-propanoyl]amino]-3-phenyl-propanoyl]amino]-4-methyl-pentanamide; di-trifluoroacetic acid]	10.81	
CC(C)C[C@@H](NC(=O)[C@@H](Cc1ccccc1)NC(=O)[C@H](N)Cc1ccccc1)C(=O)N[C@H](CCCCN)C(=O)N1CCC2(CC1)CN(C(=O)[C@@H](C)N)C2 [Compound 17, (2R)—N-[(1R)-5-amino-1-[2-[(2R)-2-aminopropanoyl]-2,7-diazaspiro[3.5]nonane-7-carbonyl]pentyl]-2-[[(2R)-2-[[(2R)-2-amino-3-phenyl-propanoyl]amino]-3-phenyl-propanoyl]amino]-4-methyl-pentanamide; tri-trifluoroacetic acid]	11.04	AUC(0-t) (Mouse PK test): 2240 ng·h/mL; half-life (Mouse PK test): 3.88 h
CC(C)C[C@@H](NC(=O)[C@@H](Cc1ccccc1)NC(=O)[C@H](N)Cc1ccccc1)C(=O)N[C@H](CCCCN)C(=O)N1CC2(CCN(C(=O)[C@@H](C)N)CC2)C1 [Compound 18, (2R)—N-[(1R)-5-amino-1-[7-[(2R)-2-aminopropanoyl]-2,7-diazaspiro[3.5]nonane-2-carbonyl]pentyl]-2-[[(2R)-2-[[(2R)-2-amino-3-phenyl-propanoyl]amino]-3-phenyl-propanoyl]amino]-4-methyl-pentanamide; tri-trifluoroacetic acid]	10.40	
CC(C)C[C@@H](NC(=O)[C@@H](Cc1ccccc1)NC(=O)[C@H](N)Cc1ccccc1)C(=O)N[C@H](CCCCN)C(=O)N1CC2(CCN(C(=O)[C@@H](C)N)CC2(F)F)C1 [Compound 19, (2R)—N-[(1R)-5-amino-1-[7-[(2R)-2-aminopropanoyl]-5,5-difluoro-2,7-diazaspiro[3.5]nonane-2-carbonyl]pentyl]-2-[[(2R)-2-[[(2R)-2-amino-3-phenyl-propanoyl]amino]-3-phenyl-propanoyl]amino]-4-methyl-pentanamide; tri-trifluoroacetic acid]	10.36	
CC(=O)N1CCC2(CC1)CN(C(=O)[C@@H](CCCCN)NC(=O)[C@@H](CC(C)C)NC(=O)[C@@H](Cc1ccccc1)NC(=O)[C@H](N)Cc1ccccc1)C2 [Compound 20, (2R)—N-[(1R)-1-(7-acetyl-2,7-diazaspiro[3.5]nonane-2-carbonyl)-5-amino-pentyl]-2-[[(2R)-2-[[(2R)-2-amino-3-phenyl-propanoyl]amino]-3-phenyl-propanoyl]amino]-4-methyl-pentanamide; di-trifluoroacetic acid]	10.07	
CNC(=O)N1CCC2(CCN(C(=O)[C@@H](CCCCN)NC(=O)[C@@H](CC(C)C)NC(=O)[C@@H](Cc3ccccc3)NC(=O)[C@H](N)Cc3ccccc3)C2)C1 (stereo partly drawn) [Compound 22, 7-[(2R)-6-amino-2-[[(2R)-2-[[(2R)-2-[[(2R)-2-amino-3-phenyl-propanoyl]amino]-3-phenyl-propanoyl]amino]-4-methyl-pentanoyl]amino]hexanoyl]-N-methyl-2,7-diazaspiro[4.4]nonane-2-carboxamide; di-trifluoroacetic acid]	10.95	
CC(C)C[C@@H](NC(=O)[C@@H](Cc1ccccc1)NC(=O)[C@H](N)Cc1ccccc1)C(=O)N[C@H](CCCCN)C(=O)N1CCC2(CC1)CC(N1CCCCC1)C2 [Compound 23, (2R)-2-[[(2R)-2-[[(2R)-2-amino-3-phenyl-propanoyl]amino]-3-phenyl-propanoyl]amino]-N-[(1R)-5-amino-1-[2-(1-piperidinyl)-7-azaspiro[3.5]nonane-7-carbonyl]pentyl]-4-methyl-pentanamide; tri-trifluoroacetic acid]	10.64	
CC(=O)N1CCC2(C1)CN(C(=O)[C@@H](CCCCN)NC(=O)[C@@H](CC(C)C)NC(=O)[C@@H](Cc1ccccc1)NC(=O)[C@H](N)Cc1ccccc1)C2 [Compound 30, (2R)—N-[(1R)-1-(7-acetyl-2,7-diazaspiro[3.4]octane-2-carbonyl)-5-amino-pentyl]-2-[[(2R)-2-[[(2R)-2-amino-3-phenyl-propanoyl]amino]-3-phenyl-propanoyl]amino]-4-methyl-pentanamide; di-trifluoroacetic acid]	10.15	
CC(=O)N1CCC2(CCN(C(=O)[C@@H](CCCCN)NC(=O)[C@@H](CC(C)C)NC(=O)[C@@H](Cc3ccccc3)NC(=O)[C@H](N)Cc3ccccc3)C2)C1 (stereo partly drawn) [Compound 31, (2R)—N-[(1R)-1-(7-acetyl-2,7-diazaspiro[4.4]nonane-2-carbonyl)-5-amino-pentyl]-2-[[(2R)-2-[[(2R)-2-amino-3-phenyl-propanoyl]amino]-3-phenyl-propanoyl]amino]-4-methyl-pentanamide; di-trifluoroacetic acid]	10.87	
CC(C)C[C@@H](NC(=O)[C@@H](Cc1ccccc1)NC(=O)[C@H](N)Cc1ccccc1)C(=O)N[C@H](CCCCN)C(=O)N1CC2(CCN(C3COC3)CC2)C1 [Compound 33, (2R)—N-[(1R)-5-amino-1-[7-(oxetan-3-yl)-2,7-diazaspiro[3.5]nonane-2-carbonyl]pentyl]-2-[[(2R)-2-[[(2R)-2-amino-3-phenyl-propanoyl]amino]-3-phenyl-propanoyl]amino]-4-methyl-pentanamide; tri-trifluoroacetic acid]	10.30	
